# Where two headings read alike, the source gives them in different places.
# Tests used:
# P. aeruginosa E411-17 = assay: microbe, parasite or virus in culture; assay type: cell-based, Pseudomonas aeruginosa; settings: Pseudomonas aeruginosa, E41117; Table 14; read-out: MIC P. aeruginosa E411-17
# Outline: (§1)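 Broth microdilution: log-phase cultures in tryptic soy broth diluted to OD600 0.001, exposed to two-fold diluted peptides at 37° C overnight, growth read at 630 nm. Medium effects on S. aureus USA300 tested with up to 200 mM NaCl, 2 mM CaCl2, 5-10% human serum, mouse plasma, fluids or tissue homogenate supernatants.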
# [1] = test system: K. pneumoniae E406-17 biofilms; assay: Biofilm disruption and attachment; assay type: cell-based, Klebsiella pneumoniae
# Description: Briefly, S. aureus USA300 and K. pneumoniae E406-17 (10^5 CFU/mL) were prepared from exponentially phase. Each well of the microtiter plate (Corning Costar® Cat No. 3595) was aliquoted with 180 μL of inoculum and the plates were incubated at 37° C. for 48 hours to form biofilm. Culture treated with water served as a positive control while media without bacterial inoculation served as the negative control. Media was aspirated post incubation and the attached biofilms were washed with 1×PBS to remove the planktonic bacteria. Each well was aliquoted with 20 μL of 10× peptide solution and 180 μL of fresh TSB media, plates were further incubated at 37° C. for 24 hours. Media aspirated from the wells and washed with 1×PBS to remove planktonic cells. Live cells in the biofilms were quantitated using XTT [2,3-bis(2-methyloxy-4-nitro-5-sulfophenyl)-2H-tertazolium-5-carboxanilide] assay by following the manufacturer's instructions with modifications. 180 μL of fresh TSB and 20 μL of XTT solution was added to each well and the plates further incubated at 37° C. for 2 hours. Absorbance was read at 450 nm (only media with XTT containing wells served as the blank) using a Chromate® microtiter plate reader. Percentage biofilm growth for the peptide was plotted by assuming 100% biofilm growth in bacterial control alone. The data is mean±SD, the significance at […]. […]
# K. pneumoniae E406-17 = assay: microbe, parasite or virus in culture; assay type: cell-based, Klebsiella pneumoniae; settings: Klebsiella pneumoniae, E40617; Table 14; read-out: MIC K. pneumoniae E406-17
# Outline: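 Broth microdilution in tryptic soy broth: log-phase cultures (OD600 ≈0.5) diluted to OD600 0.001, given two-fold peptide dilutions, incubated overnight at 37° C. Growth read at 630 nm.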
# E. faecium V286-17 (VRE) = assay: microbe, parasite or virus in culture; assay type: cell-based, Enterococcus faecium; settings: Enterococcus faecium, VRE, read-out: MIC E. faecium V286-17 (VRE)
# Outline: as §1
# A. baumannii B26-16 = assay: microbe, parasite or virus in culture; assay type: cell-based, Acinetobacter baumannii; settings: Acinetobacter baumannii, B2616; Table 14; read-out: MIC A. baumannii B26-16
# Outline: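 Broth microdilution in tryptic soy broth: log-phase cultures diluted to 0.001 OD600 and exposed to peptide dilutions overnight at 37 °C, growth read at 630 nm. For S. aureus USA300, medium effects tested at pH 6.8, 7.2 and 8.0, with 150 mM NaCl, or with 5–10% human serum, mouse plasma or peritoneal fluid.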
# S. aureus USA300 [2] = assay: microbe, parasite or virus in culture; assay type: cell-based, Staphylococcus aureus; settings: Staphylococcus aureus, MRSA / USA300; Table 14; read-out: MIC S. aureus USA300 (MRSA)
# Outline: as §1
# E. coli E423-17 = assay: microbe, parasite or virus in culture; assay type: cell-based, Escherichia coli; settings: Escherichia coli, E42317; Table 14; read-out: MIC E. coli E423-17
# Outline: as §1
# [3] = test system: clinical strains of methicillin-resistant and susceptible S. aureus; assay: microbe, parasite or virus in culture; settings: for MIC: Staphylococcus aureus
# Description: The antibacterial activity of peptides was evaluated using a standard broth microdilution protocol with minor modifications (Mishra, et al. (2017) Acta Biomater., 49:316-328). In brief, logarithmic phase bacterial cultures (i.e., optical density at 600 nm≈0.5) were diluted to 0.001 OD and aliquoted 90 μL per well into a 96-well polystyrene microplate. Added 10 μL peptides per well with various concentrations, plates were incubated at 37° C., overnight. Post incubation the plates are read at 630 nm using a ChroMate® Microplate Reader (GMI). […] To study the influence of medium conditions on the antimicrobial activity of peptides against S. aureus USA300 at different pHs (6.8, 7.2, and 8.0), 150 mM sodium chloride (NaCl), 5-10% of human serum, mouse plasma, and peritoneal fluid were included into the assays.
# [4] = test system: S. aureus USA300 biofilms; settings: 48-hour biofilms
# Description: The antibiofilm activity of the peptide against 24 hours established biofilms was evaluated. In short, S. aureus USA300 (10^5 CFU/mL) was made from exponential phase bacteria in TSB media and 200 μL was distributed to each well of the microtiter plate (Corning Costar Cat No. 3595). The plates were incubated at 37° C. for 24 hours to form biofilm. Culture treated with water served as a positive control while media without bacterial inoculation served as the negative control. Media was then pipetted out and the attached biofilms were washed with 1×PBS to remove the planktonic bacteria. Each well of the plate was then filled with 20 μL of 10× peptide solution and 180 μL of fresh TSB media and the plates were further incubated at 37° C. for 24 hours. Media was then pipetted out and the wells were washed with 1×PBS to remove planktonic cells. Live cells in the biofilms were then quantitated using XTT [2,3-bis(2-methyloxy-4-nitro-5-sulfophenyl)-2H-tertazolium-5-carboxanilide] assay by following the manufacturer's instructions with modifications. 180 μL of fresh TSB and 20 μL of XTT solution was added to each well and the plates were again incubated at 37° C. for 2 hours. Absorbance at 450 nm (only media with XTT containing wells served as the blank) was obtained using a ChroMate® microtiter plate reader. […]
# S. aureus USA300 [5] = assay type: cell-based, Staphylococcus aureus
# Description: The experiment was carried out similar to the MIC determination with a few modifications (Ge, et al. (1999) Antimicrob. Agents Chemother., 43:782-788; Ling, et al. (2015) Nature 520:388). In short, an exponential phase S. aureus USA300 culture (i.e., optical density at 600 nm≈0.5) was diluted and partitioned into a 96-well polystyrene microplate with ˜10^5 colony forming units (CFU) per well (90 μL aliquots). After treatment with 10 μL of peptide or antibiotics solutions at various concentrations, microplates were incubated at 37° C. overnight and read on a ChroMate® 4300 Microplate Reader at 630 nm (GMI). […] Plots were made to determine the increase in the fold change (MIC on given passage/MIC recorded in first day of passage).
# This experiment was performed similar to the MIC determination with a few modifications. […] After treatment with 10 μL of peptide or antibiotics solutions at various concentrations, microplates were incubated at 37° C. overnight and read on a ChroMate® Microplate Reader at 630 nm (GMI). […] The increase in the fold change (MIC on given passage/MIC recorded in first day of passage) used to determine the degree of drug resistance.
# S. aureus M838-17 (MRSA) = assay: microbe, parasite or virus in culture; assay type: cell-based, Staphylococcus aureus; settings: Staphylococcus aureus, MRSA; Table 7; by weight; read-out: MIC S. aureus M838-17 (MRSA)
# Outline: as §1
smiles,measurement,setting,value
"C[C@@H](O)[C@H]1C(=O)N2C(C(=O)O)=C(S[C@@H]3CN[C@H](CNS(N)(=O)=O)C3)[C@H](C)[C@H]12 [Doripenem, reference compound]",MIC,P. aeruginosa E411-17,2 µM
same,Adhesion/attachment of K. pneumoniae,[1],showed no effect
same,Effect on 48-hour preformed biofilms,[1]; 48-hour biofilms,showed no effect
same,MIC,K. pneumoniae E406-17,0.5 µM
same,MIC,E. faecium V286-17 (VRE); Table 14,> 8 µM
same,MIC,A. baumannii B26-16,> 8 µM
same,MIC,S. aureus USA300 [2],0.25 µM
same,MIC,E. coli E423-17,1 µM
CCOc1ccc2ccccc2c1C(=O)N[C@@H]1C(=O)N2[C@@H]1SC(C)(C)[C@@H]2C(=O)O [Nafcillin],MIC,"[3]; MSSA, strain B243-16 MSSA",< 0.25 µM
same,MIC,"[3]; MSSA, strain B254-16 MSSA",< 0.25 µM
same,MIC,"[3]; MSSA, strain B255-16 MSSA",< 0.25 µM
same,MIC,"[3]; MSSA, strain B262-16 MSSA",0.5 µM
same,MIC,"[3]; MSSA, strain B269-16 MSSA",0.5 µM
same,MIC,"[3]; NEWMAN, strain Newman",0.25 µM
same,MIC,"[3]; USA200, strain USA200",> 8 µM
same,MIC,"[3]; USA300, strain USA300",0.5 µM
same,MIC,"[3]; USA400, strain USA400",1 µM
same,MIC,[3]; strain M106-16,2 µM
same,MIC,[3]; strain M108-16,1 µM
same,MIC,[3]; strain M109-16,1 µM
same,MIC,[3]; strain M111-16,8 µM
same,MIC,[3]; strain M112-16,0.5 µM
same,MIC,[3]; strain M113-16,0.5 µM
same,MIC,[3]; strain M114-16,0.5 µM
same,MIC,[3]; strain M116-16,< 0.25 µM
same,MIC,[3]; strain M117-16,0.5 µM
same,MIC,[3]; strain M118-16,0.5 µM
same,MIC,[3]; strain M119-16,1 µM
same,MIC,[3]; strain M120-16,2 µM
same,MIC,[3]; strain M121-16,1 µM
same,MIC,[3]; strain M122-16,1 µM
same,MIC,[3]; strain M123-16,4 µM
same,MIC,[3]; strain M126-16,1 µM
same,MIC,[3]; strain M127-16,2 µM
same,MIC,[3]; strain M128-16,8 µM
same,MIC,[3]; strain M129-16,1 µM
same,MIC,[3]; strain M130-16,1 µM
same,MIC,[3]; strain UAMS-1,4 µM
same,MIC,[3]; strain mu50,> 8 µM
same,Inhibition of Mu50 and USA200 strains,[3]; nafcillin at 8 μM,did not inhibit
same,Activity against 48-hour biofilms,[4],did not
same,MIC,E. faecium V286-17 (VRE); Table 7,> 12.5 µM
same,MIC increase,"S. aureus USA300 [5]; after 16 passages, sub-MIC level",1000 fold
same,Resistance development,S. aureus USA300 [5]; multiple passage experiment,developed resistance
same,MIC,S. aureus M838-17 (MRSA),0.78 to 1.56 µM
